How the values were obtained:
ECHCO = assay: In-water applied weed control, transplanted paddy rice, greenhouse (Example II); assay type: in vivo, Echinochloa colona (L.) Link
Experimental: Evaluation of in-Water Applied Herbicidal Mixtures for Weed Control in Transplanted Paddy Rice
Weed seeds or nutlets of the desired test plant species were planted in puddled soil (mud) prepared by mixing a shredded, non-sterilized mineral soil (50.5 percent silt, 25.5 percent clay, and 24 percent sand, with a pH of about 7.6 and an organic matter content of about 2.9 percent) and water at a 1:1 volumetric ratio. The prepared mud was dispensed in 365 mL aliquots into 16-ounce (oz.) non-perforated plastic pots with a surface area of 86.59 square centimeters (cm^2) leaving a headspace of 3 centimeters (cm) in each pot. Mud was allowed to dry overnight prior to planting or transplanting. Rice seeds were planted in Sun Gro MetroMix® 306 planting mixture, which typically has a pH of 6.0 to 6.8 and an organic matter content of about 30 percent, in plastic plug trays. Seedlings at the second or third leaf stage of growth were transplanted into 840 mL of mud contained in 32-oz. non-perforated plastic pots with a surface area of 86.59 cm^2 4 days prior to herbicide application. The paddy was created by filling the headspace of the pots with 2.5 to 3 cm of water. When required to ensure good germination and healthy plants, a fungicide treatment and/or other chemical or physical treatment was applied. The plants were grown for 4-22 days in a greenhouse with an approximate 14 h photoperiod which was maintained at about 29′C during the day and 26° C. during the night. Nutrients were added as Osmocote® (19:6:12, N:P:K+ minor nutrients) at 2 g per 16-oz. pot and 4 g per 32-oz. pot. Water was added on a regular basis to maintain the paddy flood, and supplemental lighting was provided with overhead metal halide 1000-Watt lamps as necessary. The plants were employed for testing when they reached the first through fourth true leaf stage.
Treatments consisted of the acid or esters of 4-amino-3-chloro-5-fluoro-6-(4-chloro-2-fluoro-3-methoxy-phenyl)pyridine-2-carboxylic acid (compound A) each formulated as an SC (suspension concentrate) and various herbicidal components alone and in combination. Forms of compound A were applied on an acid equivalent basis. […]
Treatment requirements for each compound or herbicidal component were calculated based upon the rates being tested, the concentration of active ingredient or acid equivalent in the formulation, an application volume of 2 mL per component per pot, and an application area of 86.59 cm^2 per pot.
For formulated compounds, a measured amount was placed in an individual 100 or 200 mL glass vial and was dissolved in a volume of 1.25% (v/v) Agri-Dex® crop oil concentrate to obtain application solutions. […]

LEFCH = assay: Post-emergence foliar-applied weed control, greenhouse (Example I); assay type: in vivo, Leptochloa chinensis (L.) Nees
Text: Evaluation of Post-emergence Foliar-Applied Herbicidal Mixtures for Weed Control in Direct Seeded Rice
Seeds or nutlets of the desired test plant species were planted in a soil matrix prepared by mixing a loam or sandy loam soil (e.g., 28.6 percent silt, 18.8 percent clay, and 52.6 percent sand, with a pH of about 5.8 and an organic matter content of about 1.8 percent) and calcareous grit in an 80 to 20 ratio. The soil matrix was contained in plastic pots with a volume of 1 quart and a surface area of 83.6 square centimeters (cm^2). When required to ensure good germination and healthy plants, a fungicide treatment and/or other chemical or physical treatment was applied. The plants were grown for 8-22 days in a greenhouse with an approximate 14 h photoperiod which was maintained at about 29° C. during the day and 26° C. during the night. Nutrients (Peters Excel® 15-5-15 5-Ca 2-Mg and iron chelate) were applied in the irrigation solution as needed and water was added on a regular basis. Supplemental lighting was provided with overhead metal halide 1000-Watt lamps as necessary. The plants were employed for testing when they reached the first through fourth true leaf stage. […]
Treatment requirements were calculated based upon the rates being tested, the concentration of active ingredient or acid equivalent in the formulation, and a 12 mL application volume at a rate of 187 L/ha.
For treatments comprised of formulated compounds, measured amounts of compounds were placed individually in 25 mL glass vials and diluted in a volume of 1.25% (v/v) Agri-Dex® crop oil concentrated to obtain 12× stock solutions. […]
For treatments comprised of formulated and technical compounds, weighed amounts of the technical materials were placed individually in 25 mL glass vials and dissolved in a volume of 97:3 v/v acetone/DMSO to obtain 12× stock solutions, and measured amounts of the formulated compounds were placed individually in 25 mL glass vials and diluted in a volume of 1.5% (v/v) crop oil concentrate or water to obtain 12× stock solutions. […]

In the case of COc1c(Cl)ccc(-c2nc(C(=O)O)c(Cl)c(N)c2F)c1F [Compound A Acid, 4-amino-3-chloro-6-(4-chloro-2-fluoro-3-methoxyphenyl)-5-fluoropyridine-2-carboxylic acid], the “Visual Weed Control (%) - 21 DAA ECHCO Obs” value (ECHCO; 8.75 gae/ha) is reported as 0%, the “Visual Weed Control (%) - 21 DAA ECHCO Obs” value (ECHCO; 17.5 gae/ha) is reported as 20% and the “Visual Weed Control (%) - 21 DAA LEFCH Obs” value (LEFCH; 17.5 gae/ha) is reported as 10%. For the same molecule, the “Visual Weed Control (%) - 21 DAA LEFCH Obs” value (LEFCH; 35 gae/ha) was 60%.

From patent publication US8841233B2, “Herbicidal compositions comprising 4-amino-3-chloro-5-fluoro-6-(4-chloro-2-fluoro-3-methoxyphenyl) pyridine-2-carboxylic acid or a derivative thereof and 4-hydroxyphenyl-pyruvate dioxygenase (HPPD) inhibitors” (Dow Agrosciences LLC, priority 2012, dated 2014)
